Assays:
[1] = test system: ddY strain male mice; experiment: Acute toxicity test, Test method-(2), intraperitoneal; type: in vivo; conditions: 7 days
Experimental: The lethal ratio was determined in ddY strain male mice (4 weeks old) at 7 days after the intraperitoneal injection of test compounds.

[2] = test system: LTC4; experiment: Antagonism in isolated guinea-pig trachea, Test method (i) (Table 3, given as LTC4 antagonism); type: cell-based; conditions: Cavia porcellus, 5 min, test compound 10^-5 g/ml, given as LTC4 antagonisms
Experimental: (i) LTC4 and LTD4 antagonisms in guinea-pig trachea
Antagonisms for LTC4 and LTD4 were determined in isolated guinea-pig trachea prepared as spiral strip. Tracheal preparations were suspended under 1 g tension in 10 ml organ baths and they were incubated for 1 hr prior to use. Contractile responses to LTC4 (2×10^-8 g/ml) and LTD4 (2×10^-8 g/ml) were obtained after the maximal response to histamine (10^-4 M). Test compounds dissolved in 100% dimethyl sulfoxide were added to the organ baths (final concentration of 10^-5 g/ml or 10^-6 g/ml) 5 min prior to LTC4 and LTD4 addition, and then contractile responses to LTC4 and LTD4 were compared with those of control which was obtained from a paired trachea in the absence of test compounds. LTC4 - and LTD4 -induced contractions were expressed as a percentage of the maximal response to histamine. The antagonism was determined as follows:
(§1) Antagonism (%)=(1.0-% contraction in test/% contraction in […]

[3] = test system: LTD4; experiment: LTD4 antagonism in isolated guinea-pig trachea with indomethacin, Test method (ii) (Table 4); type: cell-based; conditions: Cavia porcellus, 0.5 h, LTD4 2×10^-8 g/ml, test compound 10^-6 g/ml, 30 min prior, 5 μmol indomethacin
Experimental: (ii) LTD4 antagonism in guinea-pig trachea
Antagonism for LTD4 was determined in isolated guinea-pig trachea prepared as spiral strip. Tracheal preparations were suspended under 1 g tension in 10 ml organ baths containing 5 μmol of indomethacin and they were incuated for 1 hr prior to use. Contractile responses to LTD4 (2×10^-8 g/ml) were obtained after the maximal response to histamine (10^-4 M). Test compounds dissolved in 100% dimethyl sulfoxide were added to the organ baths (final concentration of 10^-6 g/ml) 30 min prior to LTD4 addition, and then contractile responses to LTD4 were compared with those of control which was obtained from a paired trachea in the absence of test compounds. LTD4 -induced contractions were expressed as a percentage of the maximal response to histamine. The antagonism was determined as follows:
as §1

Row | Compound | inhibition at 10 µg/mL [2] [%] | also measured
1 | CCCc1cc(C#N)ccc1OCCCNc1cnn(C(C)(C)C)c(=O)c1Cl [Compound No. 1, 4-Chloro-5-[3-(2-n-propyl-4-cyanophenoxy)propylamino]-2-t-butyl-3(2H)pyridazinone] | 49 | Lethal ratio (Death number/Experimental number) ([1]; 200 mg/kg intraperitoneal): 0/2; Lethal ratio (Death number/Experimental number) ([1]; 400 mg/kg intraperitoneal): 0/1
2 | CCOC(=O)c1ccc(OCCCNc2cnn(CC)c(=O)c2Cl)c(Cl)c1 [Compound No. 10] | 46 | Lethal ratio (Death number/Experimental number) ([1]; 200 mg/kg intraperitoneal): 0/2; Lethal ratio (Death number/Experimental number) ([1]; 400 mg/kg intraperitoneal): 0/1
3 | COc1cccc(SCCCNc2cnn(C(C)(C)C)c(=O)c2Cl)c1 [Compound No. 14] | 40 | Lethal ratio (Death number/Experimental number) ([1]; 200 mg/kg intraperitoneal): 0/2; Lethal ratio (Death number/Experimental number) ([1]; 400 mg/kg intraperitoneal): 0/1
4 | CCCc1cc(C(N)=O)ccc1OCCCNc1cnn(C(C)C)c(=O)c1Br [Compound No. 122] |  | inhibition at 1 µg/mL [3]: 94%
5 | CCCCc1cc(C(=O)OC)ccc1OCCCNc1cnn(C(C)C)c(=O)c1Br [Compound No. 126] |  | inhibition at 1 µg/mL [3]: 90%
6 | CCCc1cc(C#N)ccc1OCC(O)CNc1cnn(C(C)C)c(=O)c1Cl (centres unmarked) [Compound No. 145, 4-chloro-5-[3-(2-n-propyl-4-cyanophenoxy)-2-hydroxypropylamino]-2-i-propyl-3(2H)pyridazinone] | 85 | Lethal ratio (Death number/Experimental number) ([1]; 200 mg/kg intraperitoneal): 0/2; Lethal ratio (Death number/Experimental number) ([1]; 400 mg/kg intraperitoneal): 0/1
7 | CCCCc1cc(C(N)=O)ccc1OCCCNc1cnn(CC)c(=O)c1Br [Compound No. 180, 4-bromo-5-[3-(2-n-butyl-4-carbamoylphenoxy)propylamino]-2-ethyl-3(2H) pyridazinone] |  | inhibition at 1 µg/mL [3]: 88%
8 | CCCCc1cc(C#N)ccc1OCCCNc1cnn(CC)c(=O)c1Br [Compound No. 181, 4-Bromo-5-[3-(2-n-butyl-4-cyanophenoxy)propylamino]-2-ethyl-3(2H)pyridazinone] |  | inhibition at 1 µg/mL [3]: 70%
9 | CCn1ncc(NCCCOc2ccc(C(=O)OC)cc2Cl)c(Cl)c1=O [compound 13] | 53 | Lethal ratio (Death number/Experimental number) ([1]; 200 mg/kg intraperitoneal): 0/2; Lethal ratio (Death number/Experimental number) ([1]; 400 mg/kg intraperitoneal): 0/1
10 | CCCc1c(OCCCOc2cnn(CC)c(=O)c2Cl)ccc2c(=O)cc(C(=O)O)oc12 [compound 29] | 18 | Lethal ratio (Death number/Experimental number) ([1]; 200 mg/kg intraperitoneal): 0/2; Lethal ratio (Death number/Experimental number) ([1]; 400 mg/kg intraperitoneal): 0/1
11 | COc1cccc(OCCCOc2cnn(C(C)C)c(=O)c2Cl)c1 [compound 35] | 72 | Lethal ratio (Death number/Experimental number) ([1]; 200 mg/kg intraperitoneal): 0/2; Lethal ratio (Death number/Experimental number) ([1]; 400 mg/kg intraperitoneal): 0/1
12 | COc1cccc(OCCOc2cnn(C(C)C)c(=O)c2Cl)c1 [compound 45] | 27 | Lethal ratio (Death number/Experimental number) ([1]; 200 mg/kg intraperitoneal): 0/2; Lethal ratio (Death number/Experimental number) ([1]; 400 mg/kg intraperitoneal): 0/1
13 | CCCc1cc(C(=O)O)ccc1OCCCOc1cnn(C(C)C)c(=O)c1Cl [compound 86] | 59 | 
14 | CCCc1cc(C#N)ccc1OCCCOc1cnn(C(C)C)c(=O)c1Cl [compound 87] | 60 | 
15 | COC(=O)c1ccc(OCCCNc2cnn(C(C)C)c(=O)c2Cl)c(C(C)C)c1 [compound 88] | 97 | 
16 | CC(C)c1cc(C(=O)O)ccc1OCCCNc1cnn(C(C)C)c(=O)c1Cl [compound 89] | 52 | 
17 | CCOc1cc(C(=O)OC)ccc1OCCCNc1cnn(C(C)C)c(=O)c1Cl [compound 90] | 83 | 
18 | CCOc1cc(C(=O)O)ccc1OCCCNc1cnn(C(C)C)c(=O)c1Cl [compound 91] | 14 | 
19 | CCc1cc(C=CC(=O)O)ccc1OCCCNc1cnn(C(C)C)c(=O)c1Cl [compound 95] | 59 | 
20 | CCc1cc(C(=O)OC)ccc1OCCCNc1cnn(CC)c(=O)c1Cl [compound 96] | 77 | 
21 | CCc1cc(C(=O)O)ccc1OCCCNc1cnn(C(C)C)c(=O)c1Cl [compound 97] | 62 | 
22 | CCn1ncc(NCCCOc2ccc(C)cc2OC)c(Cl)c1=O [compound 99] | 51 | 
23 | COc1cc(C)ccc1OCCCNc1cnn(C(C)C)c(=O)c1Cl [compound 100] | 66 | 
24 | CCn1ncc(NCCCOc2ccc(C(=O)O)cc2C(C)C)c(Cl)c1=O [compound 104] | 57 | 
25 | CCc1cc(OC)ccc1OCCCNc1cnn(CC)c(=O)c1Cl [compound 106] | 93 | 

Row | Compound | inhibition at 10 µg/mL [2] [%] | also measured
26 | CCc1cc(OC)ccc1OCCCNc1cnn(C(C)C)c(=O)c1Cl [compound 107] | 85 | 
27 | CCCCc1cc(C(=O)OC)ccc1OCCCNc1cnn(C(C)C)c(=O)c1Cl [compound 110] | 77 | 
28 | CCCc1cc(C(=O)O)ccc1OCCCNc1cnn(CC)c(=O)c1Br [compound 119] | 100 | 
29 | CCCc1cc(C(=O)OC)ccc1OCCCNc1cnn(C(C)C)c(=O)c1Br [compound 124] |  | inhibition at 1 µg/mL [3]: 92%
30 | COc1cccc(OCC(O)COc2cnn(C(C)C)c(=O)c2Cl)c1 (centres unmarked) [compound 140] | 41 | 
31 | CCOc1ccccc1OCC(O)COc1cnn(C(C)C)c(=O)c1Cl (centres unmarked) [compound 141] | 54 | 
32 | CC(C)c1ccccc1OCC(O)COc1cnn(C(C)C)c(=O)c1Cl (centres unmarked) [compound 142] | 69 | Lethal ratio (Death number/Experimental number) ([1]; 200 mg/kg intraperitoneal): 0/2; Lethal ratio (Death number/Experimental number) ([1]; 400 mg/kg intraperitoneal): 0/1
33 | CCCc1ccccc1OCC(O)CNc1cnn(C(C)C)c(=O)c1Cl (centres unmarked) [compound 144] | 84 | 
34 | CCCc1cc(C(=O)O)ccc1OCC(O)CNc1cnn(C(C)C)c(=O)c1Cl (centres unmarked) [compound 146] | 14 | 
35 | CCCc1cc(C(=O)OC)ccc1OCC(O)CNc1cnn(C(C)C)c(=O)c1Cl (centres unmarked) [compound 147] | 66 | 
36 | CCCc1cc(C(N)=O)ccc1OCC(O)CNc1cnn(C(C)C)c(=O)c1Cl (centres unmarked) [compound 148] | 17 | 
37 | CCCc1cc(C#N)ccc1OCC(=O)CNc1cnn(C(C)C)c(=O)c1Cl [compound 149] | 81 | 
38 | CCn1ncc(NCC(O)COS(=O)(=O)c2ccc(C)cc2)c(Cl)c1=O (centres unmarked) [compound 150] | 16 | 
39 | CC(C)n1ncc(NCC(O)COc2ccccc2Cl)c(Cl)c1=O (centres unmarked) [compound 151] | 47 | 
40 | CCCc1cc(OC)ccc1OCC(O)CNc1cnn(CC)c(=O)c1Cl (centres unmarked) [compound 152] | 60 | 
41 | CCCc1cc(C(=O)OC)ccc1SCC(=O)CNc1cnn(C(C)C)c(=O)c1Cl [compound 156] | 56 | 
42 | CCn1ncc(NCC(O)COc2ccccc2Cl)c(Cl)c1=O (centres unmarked) [compound 159] | 44 | 
43 | CCCc1cc(OC)ccc1OCC(O)CNc1cnn(C(C)C)c(=O)c1Cl (centres unmarked) [compound 160] | 70 | 
44 | CCCc1cc(C(=O)O)ccc1OCC(CN(C)c1cnn(C(C)C)c(=O)c1Cl)OC (centres unmarked) [compound 165] | 33 | 
45 | COC(COc1ccc(C(=O)C(C)CC(=O)O)cc1)CN(C)c1cnn(C(C)C)c(=O)c1Cl (centres unmarked) [compound 168] | 21 | 
46 | CC(C)c1ccccc1OCC(O)COc1cnn(C(C)C)c(=O)c1 (centres unmarked) [compound 169] | 50 | 
47 | COc1ccc(NCC(O)COc2cnn(C(C)C)c(=O)c2Cl)cc1OC (centres unmarked) [compound 170] | 17 | 
48 | CCCc1cc(C#N)ccc1OCC(=O)COc1cnn(C(C)C)c(=O)c1Cl [compound 173] | 35 | 
49 | CCCc1cc(C(=O)OC)ccc1OCC(O)COc1cnn(C(C)C)c(=O)c1Cl (centres unmarked) [compound 174] | 78 | 
50 | CCCc1cc(C(=O)OC)ccc1OCC(COc1cnn(C(C)C)c(=O)c1Cl)OC (centres unmarked) [compound 175] | 55 | 

From US4783462A, “3(2H)pyridazinone, and anti-allergic agent containing it” (Nissan Chemical Industries Ltd., priority 1985, dated 1988)
